# Several values for one entry are separate records, joined by “and”; a condition that tells them apart may be missing. Equal entries are not always repeated. Entries after “also recorded” stand apart in the source; their conditions may differ.
# Legend:
# [1] = tested on: patients with kidney disease; experiment: 24-hr urinary protein in patients with kidney disease before and after treatment with an iron chelator; assay type: in vivo, human
# Protocol: Kidney disease was detected in patients by the presence of an abnormal amount of protein in the urine and/or an abnormal renal function. An abnormal amount of protein in urine is an amount of total protein greater than about 0.15 g/24 h measured by an adaptation of pyrogallol red-molydate method described by Fujita, Y., et al., Bunseki Kgaku 32:379-386 (1983), the teachings of which are hereby incorporated by reference in their entirety. Many patients, as part of their routine work up, had received kidney biopsies providing diagnosis of the nature of the kidney disease.
# (§1) The diagnosis of the kidney disease was made by performing a kidney biopsy and included patients with membranoproliferative glomerulonephritis, membranous nephropathy, focal segmental sclerosis, IgA nephropathy, and diabetes as described above.
# (§2) Patients with kidney disease who had abnormally high urinary protein were treated with the iron chelator deferiprone (1,2-dimethyl-3-hydroxypyrid-4-one) (L1). Deferiprone was synthesized as previously described capsule (Kontoghiorghes A. J., et al., Inorganica Chimica Acta 136:L11-L12 (1987), the teachings of which are hereby incorporated by reference in it entirety) and formulated into capsules containing 500 mg of deferiprone per capsule.
# (§3) Urinary protein and serum creatinine was measured as described above before the administration of deferiprone. Patients were treated by oral ingestion of deferiprone in a range between about 30 mg and about 75 mg deferiprone per kilogram body weight per day 3 times a day. Urinary protein and serum creatinine was obtained 2-6 months after the administration of the iron chelator. […] Total urinary protein and serum creatinine measured before (e.g., pretreatment) and after the administration of deferiprone were compared using a paired t-test and p-value of <0.05 was considered significant.
# [2] = tested on: patients with kidney disease; experiment: Serum creatinine in patients with kidney disease before and after treatment with an iron chelator; assay type: in vivo, human
# Protocol: Creatinine clearance was calculated by the standard formula Cr=Ucr V/PCr where Cr=clearance of creatinine (ml/min); Ucr=urine creatinine (mg/dl), V=volume of urine, and PCr=plasma creatinine (mg/dl).
# as §1, §2, §3
# [3] = individual patients, before vs after 2-6 months oral deferiprone about 30-75 mg/kg per day
# [4] = mean of N=14 patients, p < 0.001
# [5] = patients with kidney disease, paired t-test, p<0.05 significant
smiles,measurement,setting,value
"Cc1c(O)c(=O)ccn1C [deferiprone, 1,2-dimethyl-3-hydroxypyrid-4-one]",24-Hr Urinary Protein Reduction %,[1]; [3],49% and 83% and 38% and 25% and 62% and 99% and 34% and 44% and 80% and 15% and 9% and 2% and 54% and 78%
same,24-Hr Urinary Protein Reduction Grams,[1]; [3],1.9 Grams and 1 Grams and 2.5 Grams and 0.7 Grams (2×) and 2.6 Grams and 5.95 Grams and 2 Grams and 2.1 Grams and 0.43 Grams and 0.5 Grams and 0.1 Grams and 1.4 Grams and 2.2 Grams
same,24-Hr Urinary Protein After,"[1]; individual patients, oral deferiprone about 30-75 mg/kg per day, 3 times a day, measured 2-6 months after administration",1.5 grams/24 hrs and 0.2 grams/24 hrs and 4 grams/24 hrs and 1.6 grams/24 hrs (2×) and 0.05 grams/24 hrs and 2.8 grams/24 hrs and 2.5 grams/24 hrs and 0.1 grams/24 hrs and 3.8 grams/24 hrs and 4.8 grams/24 hrs and 4.6 grams/24 hrs and 1.2 grams/24 hrs and 0.6 grams/24 hrs
same,"24-Hr Urinary Protein After, Mean","[1]; mean of N=14 patients, before 3.91, 2-6 months oral deferiprone about 30-75 mg/kg per day, p < 0.001",2.13 grams/24 hrs
same,"24-Hr Urinary Protein Reduction %, Mean",[1]; [4],48%
same,"24-Hr Urinary Protein Reduction Grams, Mean",[1]; [4],1.70 Grams
same,effect on total urinary protein,[1]; [5],significantly decreased; also recorded: decrease
same,effect on serum creatinine,[2]; [5],significantly decreased; also recorded: decrease
same,Creatinine After,"[2]; serum, individual patients, 2-6 months after oral deferiprone about 30-75 mg/kg per day",0.9 mg/dl (3×) and 1.3 mg/dl and 0.6 mg/dl and 0.5 mg/dl (2×) and 1.4 mg/dl and 0.7 mg/dl and 1.5 mg/dl and 0.8 mg/dl
same,"Creatinine After, Mean","[2]; serum, mean of N=11 patients, before 1.10",0.90 mg/dL

# — US6908733B2, “Diagnosis and treatment of human kidney diseases” (Shiva Biomedical, LLC, priority 1999, dated 2005)
